pIC50: −log10 of the molar value. Bridge positions count the residues as written; N and C are the ends. Square brackets hold non-standard residues; d marks the D form. Peptide text beside a SMILES is read from it. Nle = CCCC[C@H](N)C(=O)O

This note sets out measurements from patent US11780893B2, “Kv1.3 blockers” (Zealand Pharma A/S, priority 2019, dated 2023).

T1 sequence (P22001 whole entry): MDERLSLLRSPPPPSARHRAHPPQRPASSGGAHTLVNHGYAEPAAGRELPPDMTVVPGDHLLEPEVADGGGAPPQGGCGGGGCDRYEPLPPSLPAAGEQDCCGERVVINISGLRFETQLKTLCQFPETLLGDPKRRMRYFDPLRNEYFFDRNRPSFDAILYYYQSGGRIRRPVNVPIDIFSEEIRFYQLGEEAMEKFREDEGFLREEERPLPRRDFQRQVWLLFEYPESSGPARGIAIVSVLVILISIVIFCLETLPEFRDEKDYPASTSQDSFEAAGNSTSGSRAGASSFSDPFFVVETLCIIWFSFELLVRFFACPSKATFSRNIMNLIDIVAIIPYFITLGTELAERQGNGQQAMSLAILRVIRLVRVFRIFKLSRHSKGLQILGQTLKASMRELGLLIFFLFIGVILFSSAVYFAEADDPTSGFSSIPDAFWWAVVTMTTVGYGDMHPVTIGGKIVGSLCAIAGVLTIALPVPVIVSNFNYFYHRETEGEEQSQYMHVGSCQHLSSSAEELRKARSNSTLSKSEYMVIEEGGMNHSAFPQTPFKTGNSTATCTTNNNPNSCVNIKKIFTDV

This assay concerns the target T1, human Kv1.3 voltage-gated K+ channel (Homo sapiens, UniProt P22001).
T1 construct: host or cells: CHO-DUKX
Kind of assay: cell-based. The settings on record: inhibition of thallium flux, CHO-DUKX cells with human Kv1.3; read-out: IC50.
Turning to `CCCC[C@H](NC(=O)[C@@H]1CCCN1)C(=O)N[C@@H](CCC(=O)O)C(=O)N[C@@H](CCCC)C(=O)N[C@@H](CCCNC(=N)N)C(=O)N[C@H]1CSSC[C@@H]2NC(=O)[C@H](CCCCN)NC(=O)CNC(=O)[C@H](Cc3ccccc3)NC(=O)[C@H]([C@@H](C)CC)NC(=O)[C@H](CO)NC(=O)CNC(=O)[C@H]([C@@H](C)CC)NC(=O)[C@H](C)NC(=O)[C@H](C)NC(=O)[C@H](CC(C)C)NC(=O)[C@@H]3CSSC[C@@H](C(=O)N[C@@H](Cc4ccc(O)cc4)C(=O)N4CCC[C@H]4C(=O)N[C@@H](CCCNC(=N)N)C(=O)N[C@@H](Cc4ccccc4)C(=O)N[C@@H](CCC(=O)O)C(=O)O)NC(=O)[C@H](CCCCN)NC(=O)[C@H](CSSC[C@H](NC(=O)[C@H](CCC(=O)O)NC(=O)[C@H](C(C)C)NC(=O)[C@H](CO)NC(=O)[C@H](C)NC(=O)[C@H](CO)NC1=O)C(=O)N[C@@H](CCCCN)C(=O)N[C@@H](CCC(N)=O)C(=O)N[C@@H](CCCCN)C(=O)N3)NC(=O)[C@H](CCCCN)NC(=O)[C@H](CCCCN)NC(=O)[C@H](CC(N)=O)NC(=O)[C@H](CCCC)NC2=O` [Compound 128] (H-P[Nle]E[Nle]RCSASVECKQKCLAAIGSIFGKC[Nle]NKKCKCYPRFE-OH; disulfide 6-27, 12-32, 16-34), the pIC50 was 8.14.

As for `CC[C@H](C)[C@@H]1NC(=O)[C@H](C)NC(=O)[C@H](CCCCN)NC(=O)[C@H](CC(C)C)NC(=O)[C@@H]2CSSC[C@@H](C(=O)N[C@@H](Cc3ccc(O)cc3)C(=O)N3CCC[C@H]3C(=O)N[C@@H](CCCNC(=N)N)C(=O)O)NC(=O)[C@H](CCCCN)NC(=O)[C@@H]3CSSC[C@H](NC(=O)[C@H](CCC(=O)O)NC(=O)[C@H](C(C)C)NC(=O)[C@H](CO)NC(=O)[C@H](C)NC(=O)[C@H](CO)NC(=O)[C@@H](NC(=O)[C@H](CCCNC(=N)N)NC(=O)[C@H](CCSC)NC(=O)[C@H](CC(=O)O)NC(=O)[C@H](CCSC)NC(=O)[C@H](CC(N)=O)NC(=O)CNC(=O)CN)CSSC[C@H](NC(=O)[C@H](CCCCN)NC(=O)CNC(=O)[C@H](Cc4ccccc4)NC(=O)[C@H]([C@@H](C)CC)NC(=O)[C@H](CO)NC(=O)CNC1=O)C(=O)N[C@@H](CCSC)C(=O)N[C@@H](CC(N)=O)C(=O)N[C@@H](CCCCN)C(=O)N[C@@H](CCCCN)C(=O)N3)C(=O)N[C@@H](CCCCN)C(=O)N[C@@H](CCC(N)=O)C(=O)N[C@@H](CCCCN)C(=O)N2` [Compound 11] (H-GGNMDMRCSASVECKQKCLKAIGSIFGKCMNKKCKCYPR-OH; disulfide 8-29, 14-34, 18-36), the pIC50 is 9.52.

Turning to `CCCC[C@H](NC(=O)[C@@H]1CCCN1)C(=O)N[C@@H](CCC(=O)O)C(=O)N[C@@H](CCCC)C(=O)N[C@@H](CCCNC(=N)N)C(=O)N[C@H]1CSSC[C@@H]2NC(=O)[C@H](CCCCN)NC(=O)CNC(=O)[C@H](Cc3ccccc3)NC(=O)[C@H]([C@@H](C)CC)NC(=O)[C@H](CO)NC(=O)CNC(=O)[C@H]([C@@H](C)CC)NC(=O)[C@H](C)NC(=O)[C@H](C)NC(=O)[C@H](CC(C)C)NC(=O)[C@@H]3CSSC[C@@H](C(=O)N[C@@H](Cc4ccc(O)cc4)C(=O)N4CCC[C@H]4C(=O)N[C@@H](CCCNC(=N)N)C(=O)N[C@@H](CO)C(=O)N[C@H](C(=O)O)[C@@H](C)O)NC(=O)[C@H](CCCCN)NC(=O)[C@H](CSSC[C@H](NC(=O)[C@H](CCC(=O)O)NC(=O)[C@H](C(C)C)NC(=O)[C@H](CO)NC(=O)[C@H](C)NC(=O)[C@H](CO)NC1=O)C(=O)N[C@@H](CCCCN)C(=O)N[C@@H](CCC(N)=O)C(=O)N[C@@H](CCCCN)C(=O)N3)NC(=O)[C@H](CCCCN)NC(=O)[C@H](CCCCN)NC(=O)[C@H](CC(N)=O)NC(=O)[C@H](CCCC)NC2=O` [Compound 133] (H-P[Nle]E[Nle]RCSASVECKQKCLAAIGSIFGKC[Nle]NKKCKCYPRST-OH; disulfide 6-27, 12-32, 16-34), the pIC50 is 8.96.

Take `CCCC[C@H](NC(=O)[C@@H]1CCCN1)C(=O)N[C@@H](CCC(=O)O)C(=O)N[C@@H](CCCC)C(=O)N[C@@H](CCCNC(=N)N)C(=O)N[C@H]1CSSC[C@@H]2NC(=O)[C@H](CCCCN)NC(=O)CNC(=O)[C@H](Cc3ccccc3)NC(=O)[C@H]([C@@H](C)CC)NC(=O)[C@H](CO)NC(=O)CNC(=O)[C@H]([C@@H](C)CC)NC(=O)[C@H](C)NC(=O)[C@H](C)NC(=O)[C@H](CC(C)C)NC(=O)[C@@H]3CSSC[C@@H](C(=O)N[C@@H](Cc4ccc(O)cc4)C(=O)N4CCC[C@H]4C(=O)N[C@@H](CCCNC(=N)N)C(=O)N[C@@H](CCCNC(=N)N)C(=O)N[C@@H](Cc4ccc(O)cc4)C(=O)O)NC(=O)[C@H](CCCCN)NC(=O)[C@H](CSSC[C@H](NC(=O)[C@H](CCC(=O)O)NC(=O)[C@H](C(C)C)NC(=O)[C@H](CO)NC(=O)[C@H](C)NC(=O)[C@H](CO)NC1=O)C(=O)N[C@@H](CCCCN)C(=O)N[C@@H](CCC(N)=O)C(=O)N[C@@H](CCCCN)C(=O)N3)NC(=O)[C@H](CCCCN)NC(=O)[C@H](CCCCN)NC(=O)[C@H](CC(N)=O)NC(=O)[C@H](CCCC)NC2=O` [Compound 134] (H-P[Nle]E[Nle]RCSASVECKQKCLAAIGSIFGKC[Nle]NKKCKCYPRRY-OH; disulfide 6-27, 12-32, 16-34): the pIC50 was 9.68.

Regarding `CCCC[C@@H]1NC(=O)[C@@H]2CSSC[C@H](NC(=O)[C@H](CCCNC(=N)N)NC(C)=O)C(=O)N[C@@H](CO)C(=O)N[C@@H](C)C(=O)N[C@@H](CO)C(=O)N[C@@H](C(C)C)C(=O)N[C@@H](CCC(=O)O)C(=O)N[C@H]3CSSC[C@H](NC(=O)[C@H](CCCCN)NC(=O)[C@H](CCCCN)NC(=O)[C@H](CC(N)=O)NC1=O)C(=O)N[C@@H](CCCCN)C(=O)N[C@H](C(=O)N[C@@H](Cc1ccc(O)cc1)C(=O)N1CCC[C@H]1C(=O)N[C@@H](CCCNC(=N)N)C(=O)O)CSSC[C@H](NC(=O)[C@H](CCCCN)NC(=O)[C@H](CCC(N)=O)NC(=O)[C@H](CCCCN)NC3=O)C(=O)N[C@@H](CC(C)C)C(=O)N[C@@H](CCCCN)C(=O)N[C@@H](C)C(=O)N[C@@H]([C@@H](C)CC)C(=O)NCC(=O)N[C@@H](CO)C(=O)N[C@@H]([C@@H](C)CC)C(=O)N[C@@H](Cc1ccccc1)C(=O)NCC(=O)N[C@@H](CCCCN)C(=O)N2` [Compound 113] (Ac-RCSASVECKQKCLKAIGSIFGKC[Nle]NKKCKCYPR-OH; disulfide 2-23, 8-28, 12-30), the pIC50 was 9.47.

On to `CCCC[C@H](NC(=O)[C@@H]1CCCN1)C(=O)N[C@@H](CCC(=O)O)C(=O)N[C@@H](CCCC)C(=O)N[C@@H](CCCNC(=N)N)C(=O)N[C@H]1CSSC[C@@H]2NC(=O)[C@H](CCCCN)NC(=O)CNC(=O)[C@H](Cc3ccccc3)NC(=O)[C@H]([C@@H](C)CC)NC(=O)[C@H](CO)NC(=O)CNC(=O)[C@H]([C@@H](C)CC)NC(=O)[C@H](C)NC(=O)[C@H](C)NC(=O)[C@H](CC(C)C)NC(=O)[C@@H]3CSSC[C@@H](C(=O)N[C@@H](Cc4ccc(O)cc4)C(=O)N4CCC[C@H]4C(=O)N[C@@H](CCCNC(=N)N)C(=O)N[C@@H](C)C(=O)N[C@@H](CCCCN)C(=O)O)NC(=O)[C@H](CCCCN)NC(=O)[C@H](CSSC[C@H](NC(=O)[C@H](CCC(=O)O)NC(=O)[C@H](C(C)C)NC(=O)[C@H](CO)NC(=O)[C@H](C)NC(=O)[C@H](CO)NC1=O)C(=O)N[C@@H](CCCCN)C(=O)N[C@@H](CCC(N)=O)C(=O)N[C@@H](CCCCN)C(=O)N3)NC(=O)[C@H](CCCCN)NC(=O)[C@H](CCCCN)NC(=O)[C@H](CC(N)=O)NC(=O)[C@H](CCCC)NC2=O` [Compound 130] (H-P[Nle]E[Nle]RCSASVECKQKCLAAIGSIFGKC[Nle]NKKCKCYPRAK-OH; disulfide 6-27, 12-32, 16-34), for which the negative-log IC50 (pIC50) is 9.28.

Turning to `CCCC[C@H](NC(=O)[C@@H]1CCCN1)C(=O)N[C@@H](CCC(=O)O)C(=O)N[C@@H](CCCC)C(=O)N[C@@H](CCCNC(=N)N)C(=O)N[C@H]1CSSC[C@@H]2NC(=O)[C@H](CCCCN)NC(=O)CNC(=O)[C@H](Cc3ccccc3)NC(=O)[C@H]([C@@H](C)CC)NC(=O)[C@H](CO)NC(=O)CNC(=O)[C@H]([C@@H](C)CC)NC(=O)[C@H](C)NC(=O)[C@H](C)NC(=O)[C@H](CC(C)C)NC(=O)[C@@H]3CSSC[C@@H](C(=O)N[C@@H](Cc4ccc(O)cc4)C(=O)N4CCC[C@H]4C(=O)N[C@@H](CCCNC(=N)N)C(=O)N[C@@H](Cc4c[nH]cn4)C(=O)N[C@@H](CCCNC(=N)N)C(=O)O)NC(=O)[C@H](CCCCN)NC(=O)[C@H](CSSC[C@H](NC(=O)[C@H](CCC(=O)O)NC(=O)[C@H](C(C)C)NC(=O)[C@H](CO)NC(=O)[C@H](C)NC(=O)[C@H](CO)NC1=O)C(=O)N[C@@H](CCCCN)C(=O)N[C@@H](CCC(N)=O)C(=O)N[C@@H](CCCCN)C(=O)N3)NC(=O)[C@H](CCCCN)NC(=O)[C@H](CCCCN)NC(=O)[C@H](CC(N)=O)NC(=O)[C@H](CCCC)NC2=O` [Compound 129] (H-P[Nle]E[Nle]RCSASVECKQKCLAAIGSIFGKC[Nle]NKKCKCYPRHR-OH; disulfide 6-27, 12-32, 16-34), the pIC50 is 9.84.

With `CCCC[C@H](NC(=O)[C@@H](N)CC(N)=O)C(=O)N[C@@H](CC(=O)O)C(=O)N[C@@H](CCSC)C(=O)N[C@@H](CCCNC(=N)N)C(=O)N[C@H]1CSSC[C@@H]2NC(=O)[C@H](CCCCN)NC(=O)CNC(=O)[C@H](Cc3ccccc3)NC(=O)[C@H]([C@@H](C)CC)NC(=O)[C@H](CO)NC(=O)CNC(=O)[C@H]([C@@H](C)CC)NC(=O)[C@H](C)NC(=O)[C@H](CCCCN)NC(=O)[C@H](CC(C)C)NC(=O)[C@@H]3CSSC[C@@H](C(=O)N[C@@H](Cc4ccc(O)cc4)C(=O)N4CCC[C@H]4C(=O)N[C@@H](CCCNC(=N)N)C(N)=O)NC(=O)[C@H](CCCCN)NC(=O)[C@H](CSSC[C@H](NC(=O)[C@H](CCC(=O)O)NC(=O)[C@H](C(C)C)NC(=O)[C@H](CO)NC(=O)[C@H](C)NC(=O)[C@H](CO)NC1=O)C(=O)N[C@@H](CCCCN)C(=O)N[C@@H](CCC(N)=O)C(=O)N[C@@H](CCCCN)C(=O)N3)NC(=O)[C@H](CCCCN)NC(=O)[C@H](CCCCN)NC(=O)[C@H](CC(N)=O)NC(=O)[C@H](CCSC)NC2=O` [Compound 14] (H-N[Nle]DMRCSASVECKQKCLKAIGSIFGKCMNKKCKCYPR-NH2; disulfide 6-27, 12-32, 16-34), the pIC50 is 9.80.
